Data set [1] is described as follows: Plasma pharmacokinetics of ATV and metabolites in BDC and UCC dogs (LC-MS/MS). The data set is classed as in vivo. The conditions noted are these: male, beagle, dog, po, 40 mg/kg, 40 mg/kg oral dose of ATV, ± standard deviation; for AUC: read-out: AUC0‐24h. The method, then: (§1) Plasma samples were collected at 0.5, 1, 2, 4, 6, and 24 hours postdose via cephalic vein or indwelling cephalic catheter. At the 6‐ and 24‐hours postdose time points, dogs were sedated with propofol at 6 mg/kg through an indwelling cephalic catheter. The dogs were then positioned in a dorsal‐recumbency with head elevated. Heart rate, rhythm, and arterial oxygen saturation were monitored throughout the procedure. After shaving and aseptically preparing the abdominal skin immediately caudal to the xiphoid process, an ultrasound exam of the gallbladder and cranial abdomen was done using a Mylab30cv ultrasound system with 9‐3 MHz micro‐convex transducer (Esoate, Indianapolis, IN). A 21‐gauge, 1.5‐inch needle, attached to a 5‐mL syringe, was inserted percutaneously through the abdominal wall into the gallbladder lumen. Effort was made to completely empty the gallbladder by aspiration (typically, 2‐5 mL bile was obtained). The needle and syringe were withdrawn and the bile samples were immediately saved on dry ice for later analysis. Dogs were allowed to recover in their home cages. Both plasma and bile samples were stored at −20°C until analysis.
(§2) Plasma samples were collected from dogs and monkeys at 0.5, 1, 2, 4, 6, and 24 hours postdose. Bile samples were collected at 0‐2 hours, 2‐4 hours, 4‐6 hours, 6‐8 hours, and 8‐24 hours intervals. Both plasma and bile samples were stored at −20°C until analysis.
(§3) Standard curves and quality control (QC) samples defining the dynamic range of the bioanalytical method were prepared in commercially available control plasma and processed in the same fashion as the test samples. When dilutions were required, an aliquot of the sample was diluted into control plasma. […] The supernatant was then separated from the precipitated proteins after a 10‐minute centrifugation at 3500 rpm (2109× g) at 10°C and transferred to an autosampler 96‐well plate. An aliquot (10 µL) was injected onto the ultrahigh performance liquid chromatography (UHPLC) column for LC‐MS/MS‐based analysis. Samples from individual animals were not pooled prior to quantitative analysis.
(§4) The UHPLC system Nexera (Shimadzu, Japan) consisted of two pumps (LC30AD), a column heater (CTO‐30A), and an autosampler (SIL‐30AC) equipped with a cooling compartment that maintained samples at 15°C during analysis. The analytical column used was a BEH C18 2.1 mm × 50 mm, 1.7 µm (Waters Corporation, Milford, MA) at 50°C. The mobile phase, which consisted of 0.1% formic acid in water (A) and acetonitrile (B), was delivered at a flow rate of 0.6 mL/min. The initial conditions were 100% aqueous followed by 1‐minute gradient to 100% acetonitrile then hold for 0.4 minutes and back to initial conditions.
(§5) The UHPLC was interfaced to a Finnigan TSQ Quantum Ultra LC‐MS/MS tandem mass spectrometer (Thermo Electron Corporation) equipped with heated electrospray ionization (HESI‐II) interface operating in the positive ionization mode. Ultrahigh‐purity nitrogen was used as the sheath and auxiliary gases at flow rates of 55 L/h for sheath and 25 L/h for auxiliary. The desolvation temperature was 300°C and the source temperature was 350°C. The detection of each analyte was achieved through selected reaction monitoring. […]
(§6) The peak concentration (Cmax) and time for Cmax (Tmax) were recorded directly from experimental observations. The area under the curve from time 0 to 24 hours (AUC0‐24h) was calculated using a combination of linear and log trapezoidal summations.

Data set [2] in a line: Concentration of ATV and metabolites in monkey bile obtained by BDC and UCC (LC-MS/MS). The data set is classed as in vivo, cynomolgus macaques. The conditions noted are these: UCC monkeys, 4‐5 h, 30 mg/kg ATV orally, ± standard deviation.
A short description of data set [3]: Plasma pharmacokinetics of ATV and metabolites in BDC and UCC monkeys (LC-MS/MS). The data set is classed as in vivo, cynomolgus macaques. The conditions noted are these: for Cmax / Tmax / AUC: male, cynomolgus, cynomolgus monkey, plasma, po, 30 mg/kg, 30 mg/kg oral dose of ATV, ± standard deviation; for AUC: read-out: AUC0‐24h; for plasma concentration: both the UCC and BDC monkey plasma samples, 30 mg/kg ATV orally. The method, then: (§7) Plasma and bile samples were collected. For bile collection monkeys were sedated with ketamine (8 mg/kg) and dexmedetomidine (0.05 mg/kg) intramuscularly. At the conclusion of the procedure, sedation was reversed with atipamezole (0.15 mg/kg) intramuscularly. All other procedures were the same as for the dog.
as §2, §3, §4, §5, §6

The nature of data set [4]: Metabolite profile of ATV in dog bile (LC-MS, UV 254 nm). The data set is classed as in vivo, beagle dogs. The following applies: based on the UV chromatograms.
Experimental: Dog bile samples obtained by cholecystocentesis were pooled across animals (n = 3). Samples were mixed with an equal volume of citrate buffer (100 mmol/L) to make the final buffer concentration of 50 mmol/L. The mixture was mixed by vortexing for 1 minute and then centrifuged at 12 000× g for 15 minutes. An aliquot (5‐10 μL) of the supernatant was injected onto the UHPLC column for LC‐MS/MS‐based analysis.
The metabolite profile was obtained using LTQ‐Orbitrap coupled with Accela UHPLC and PDA (ThermoScientific, San Jose, CA) and a CTC PAL autosampler equipped with a cooling stack that maintained samples at 4°C during analysis. A 20‐minute UHPLC method was developed. The column was Acquity UPLC HSS T3 (Waters, Milford, MA) 2.1 × 150 mm, 1.8 µm. The column was maintained at a temperature of 55°C. The mobile phase consisted of 0.1% formic acid in water (solvent A) and 0.1% formic acid in acetonitrile (solvent B) at a flowrate of 600 µL/min with the following linear gradient conditions: 5% A for 0.5 minutes, 20‐60% B over 14 minutes, 95% B over 3 minutes, and 5% B isocratic for 2 minutes. Instrument settings were as follows: m/z range: 100 to 1000, capillary temperature was set at 280°C, nitrogen sheath gas flow rate 80 (arbitrary units), auxiliary gas 20, spray voltage 4.0 kV, and tube lens offset 80 V. In addition, UV wavelength was monitored at 254 nm.
The nature of data set [5]: Concentration of ATV and metabolites in dog bile obtained by BDC and UCC (LC-MS/MS). The data set is classed as in vivo, beagle dogs. The conditions noted are these: for Concentration in bile: BDC dogs, 40 mg/kg ATV orally, ± standard deviation; for concentration at 6 h / concentration at 24 h: male, beagle, dog, bile, po, 40 mg/kg. The method, then: as §1, §2, §3, §4, §5

Data set [6] is described as follows: Metabolite profile of ATV in monkey bile (LC-MS, UV 254 nm). In kind it is in vivo, cynomolgus macaques. The following applies: UV chromatograms.
The nature of data set [7]: Concentration of ATV and metabolites in monkey bile obtained by BDC and UCC (LC-MS/MS). The conditions noted are these: for Concentration in bile: BDC monkeys, 30 mg/kg ATV orally; for concentration at 24 h: male, cynomolgus, cynomolgus monkey, bile, po, 30 mg/kg. In kind it is in vivo, cynomolgus macaques. The method, then:
as §7, §2, §3, §4, §5

[8] abbreviates: 0‐2 h, n = 2 due to blocked/displaced cannulas.
The mark [9] stands for this setting: 6‐8 h, n = 2 due to blocked/displaced cannulas.

Marks after values point to notes of the source that are not given here.

For the molecule `CC(C)c1c(C(=O)Nc2ccccc2O)c(-c2ccccc2)c(-c2ccc(F)cc2)n1CC[C@@H](O)C[C@@H](O)CC(=O)O` [2‐OH ATV, 2‐hydroxyatorvastatin], the Cmax in data set [1] (BDC dogs (n = 3)) stood at 0.352 ± 0.28 µM; in data set [1] (UCC dogs (n = 3)), 0.215 ± 0.095 µM; in data set [3] (BDC monkeys (n = 4)), 0.055 ± 0.02 µM; in data set [3] (UCC monkeys (n = 3)), 0.031 ± 0.018 µM. In addition, the Tmax in data set [1] (BDC dogs (n = 3)) was 2 h; in data set [1] (UCC dogs (n = 3)), 1.7 ± 0.6 h; in data set [3] (BDC monkeys (n = 4)) it was 9 ± 10.1 h; in data set [3] (UCC monkeys (n = 3)) it was 2 ± 1.7 h. Besides, the AUC is 0.667 ± 0.203 µM·h in data set [1] (BDC dogs (n = 3)), 0.736 ± 0.066 µM·h in data set [1] (UCC dogs (n = 3)), 0.664 ± 0.347 µM·h in data set [3] (BDC monkeys (n = 4)) and 0.057 ± 0.008 µM·h in data set [3] (UCC monkeys (n = 3)). The Concentration in bile in data set [2] stood at 334 ± 70 µM; in data set [5] (0‐2 h), 256 ± 284 µM; in data set [5] (2‐4 h), 690 ± 296 µM; in data set [5] (4‐6 h), 337 ± 266 µM; in data set [5] (6‐8 h) it was 168 ± 134 µM; in data set [5] (8‐24 h), 27 ± 19 µM. Further, the Concentration in bile amounted to 112 µmol/L in data set [7] (setting [8]); 317 ± 66 µmol/L in data set [7] (2‐4 h, ± standard deviation); 412 ± 302 µmol/L in data set [7] (4‐6 h, ± standard deviation); 306 µmol/L in data set [7] (setting [9]); 303 ± 151 µmol/L in data set [7] (8‐24 h, ± standard deviation). In addition, the “abundance of metabolite in bile” value in data set [4] and in data set [6] was “major oxidative metabolites” in each case. The concentration at 6 h in data set [5] was determined as 151 ± 53 µM. Besides, the concentration at 24 h was determined as 63 ± 65 µM in data set [5] and 586 ± 127 µM in data set [7].
For `CC(C)c1c(C(=O)Nc2ccc(O)cc2)c(-c2ccccc2)c(-c2ccc(F)cc2)n1CC[C@@H]1C[C@@H](O)CC(=O)O1` [4‐OH ATV‐L, 4‐hydroxyatorvastatin lactone], the Concentration in bile in data set [2] was 9 ± 5 µM; in data set [7] (setting [8]), 2 µmol/L; in data set [7] (2‐4 h, ± standard deviation), 6 ± 3 µmol/L; in data set [7] (4‐6 h, ± standard deviation), 4 ± 2 µmol/L; in data set [7] (setting [9]), 3 µmol/L; in data set [7] (8‐24 h, ± standard deviation) it was 2 ^b μmol/L. The plasma concentration result in data set [3] is “below the limits of quantitation”. For the same molecule, the concentration at 24 h in data set [7] came out at 19 ± 3 µM.
As to `CC(C)c1c(C(=O)Nc2ccc(O)cc2)c(-c2ccccc2)c(-c2ccc(F)cc2)n1CC[C@@H](O)C[C@@H](O)CC(=O)O` [4‐OH ATV, 4‐hydroxyatorvastatin], the results for the Cmax in data set [1] (BDC dogs (n = 3)) and in data set [1] (UCC dogs (n = 3)) were 0.138 ± 0.12 µM and 0.082 ± 0.03 µM, respectively. Moreover, the Tmax in data set [1] (BDC dogs (n = 3)) turned out to be 2.7 ± 1.2 h; in data set [1] (UCC dogs (n = 3)) it was 3.3 ± 1.2 h. Further, the AUC in data set [1] (BDC dogs (n = 3)) turned out to be 0.293 ± 0.038 µM·h; in data set [1] (UCC dogs (n = 3)) it was 0.381 ± 0.128 µM·h. Also, the Concentration in bile in data set [2] stood at 271 ± 185 µM; in data set [5] (0‐2 h), 501 ± 522 µM; in data set [5] (2‐4 h), 1342 ± 583 µM; in data set [5] (4‐6 h), 862 ± 472 µM; in data set [5] (6‐8 h), 558 ± 356 µM; in data set [5] (8‐24 h) it was 184 ± 97 µM. The Concentration in bile in data set [7] (setting [8]) came out at 56 µmol/L; in data set [7] (2‐4 h, ± standard deviation) it was 180 ± 68 µmol/L; in data set [7] (4‐6 h, ± standard deviation), 207 ± 116 µmol/L; in data set [7] (setting [9]), 140 µmol/L; in data set [7] (8‐24 h, ± standard deviation), 181 ± 29 µmol/L. Further, in data set [3], the plasma concentration result is reported as “below the limits of quantitation”. Further, the “abundance of metabolite in bile” value in data set [4] and in data set [6] was “major oxidative metabolites” throughout. Moreover, the concentration at 6 h in data set [5] came out at 279 ± 60 µM. For the same molecule, the figures for the concentration at 24 h in data set [5] and in data set [7] were 262 ± 317 µM and 594 ± 39 µM, respectively.
With `CC(C)c1c(C(=O)Nc2ccccc2O)c(-c2ccccc2)c(-c2ccc(F)cc2)n1CC[C@@H]1C[C@@H](O)CC(=O)O1` [2‐OH ATV‐L, 2‐hydroxyatorvastatin lactone], the Concentration in bile turned out to be 73 ± 19 µM in data set [2]; 36 µmol/L in data set [7] (setting [8]); 93 ± 57 µmol/L in data set [7] (2‐4 h, ± standard deviation); 67 ± 35 µmol/L in data set [7] (4‐6 h, ± standard deviation); 52 µmol/L in data set [7] (setting [9]); 18 ± 19 µmol/L in data set [7] (8‐24 h, ± standard deviation). Besides, the Cmax in data set [3] (BDC monkeys (n = 4)) was 0.024 ± 0.006 µM; in data set [3] (UCC monkeys (n = 3)), 0.039 ± 0.029 µM. The results for the Tmax in data set [3] (BDC monkeys (n = 4)) and in data set [3] (UCC monkeys (n = 3)) were 4 ± 1.6 h and 1.3 ± 0.6 h, respectively. For the same molecule, the values for the AUC in data set [3] (BDC monkeys (n = 4)) and in data set [3] (UCC monkeys (n = 3)) were 0.116 ± 0.045 µM·h and 0.035 ± 0.007 µM·h, respectively. Besides, the concentration at 24 h in data set [7] stood at 147 ± 44 µM.

Broadly, the Cmax is the highest concentration seen after dosing. What is called Tmax is the time at which the peak concentration occurs.

For the origin of these results see paper PMC6536413, “Application of ultrasound‐guided cholecystocentesis to the evaluation of the metabolite profiling in bile of dogs and cynomolgus monkeys” (Pharmacology Research & Perspectives, 2019).
